Test system: bone marrow-derived macrophages (BMDM)
Test: TNF-α and IL-6 production in mouse bone marrow-derived macrophages (ELISA)
Assay type: cell-based, C57BL/6J mice
Conditions: mBMDM, 1 nM (1.8 ng/mL), 16 h
Procedure: The ability of Lipid A mimetics 1–3 to induce the production of TNF-α and IL-6 from bone marrow-derived macrophages (BMDM) in mice was subsequently examined and compared to that of synthetic E. coli Lipid A and E. coli MPLA, which are reliable positive controls due to their chemical purity and homogeneity (Figure 6). […] Likewise, 1 nM (1.8 ng/mL) of 1 or 2 triggered the release of a 3-fold higher amount of IL-6 (1500 pg/mL) compared to Lipid A (500 pg/mL).
Bone-marrow-derived microphages (BMDMs) were isolated and differentiated from the bone marrow of C57BL/6J mice. The bone marrow was flushed from femur and fibia with RPMI media. The erythrocytes were lysed with 0.88% ammonium chloride, 15 min at 37 °C. A single-cell suspension of the bone marrow cells was then seeded in cell culture flasks at a concentration of 1 × 10^6 cells/mL in RPMI supplemented with 20% FBS and 40 ng/mL recombinant M-CSF. The cell culture medium was changed on day 3. On day 6, the differentiated cells were trypsinized, counted, and seeded in 24-well plates at a concentration of 1 × 10^6 cells/mL in RPMI supplemented with 10% FBS. After 24 h, the cells were stimulated with Lipid A mimetics 1–3 and with synthetic E. coli Lipid A/MPLA (E. coli O111:B4 LPS was used as positive control) for 16 h. The nanomolar concentrations of 1–3 were calculated according to the MW of the synthetic compounds. The supernatants were then tested for cytokines using Ready-Set-Go ELISA kits (eBioscience).

Structure (SMILES): CCCCCCCCCCCCCC(=O)O[C@H](CCCCCCCCCCC)CC(=O)N[C@H]1[C@H](OC[C@H]2O[C@H](OP(=O)(O)O)[C@H](NC(=O)C[C@H](O)CCCCCCCCCCC)[C@@H](OC(=O)C[C@H](O)CCCCCCCCCCC)[C@@H]2O)O[C@H](CO)[C@@H](OP(=O)(O)O)[C@@H]1OC(=O)C[C@@H](CCCCCCCCCCC)OC(=O)CCCCCCCCCCCCC [Lipid A]
- IL-6 release: 500 pg/mL
